Results: patent US20250057864A1, “COMPOSITION FOR IMPROVING EXERCISE PERFORMANCE COMPRISING GYPENOSIDE COMPOUND AS ACTIVE INGREDIENT” (BTC CORPORATION, priority 2022, published 2025)

Tests used:
[1] = system: TFam, CPT1-β, mtDNA in C2C12 cells; assay: mRNA expression related with mitochondrial replication in C2C12 cells (real-time RT-PCR); type: cell-based, mice; conditions: C2C12, 0.36 μg/mL (Cr 5 μg/mL), control G1 = 1.00
Description: (§1) C2C12 cells were dispensed into a 6-well plate at 2×10^5 cells/well and stabilized for 24 hours. In order to investigate the effect of each test substance on muscle cell differentiation, each test substance was added to the myocyte differentiation medium. The cells were cultured for 4 days (mRNA analysis) or 7 days (protein analysis) after exchanging the cell culture medium with the myocyte differentiation medium treated with each test substance, as shown in Table 2.
(§2) C2C12 cells were dispensed into a 6-well plate at 2×10^5 cells/well and stabilized for 24 hours. The cells were cultured for 2 or 4 days after replacing the cell culture with a myocyte differentiation medium containing the test substance. After collecting the cells, total RNA was isolated using an RNeasy Plus Mini kit (QIAGEN), and quantified using a micro-volume spectrophotometer (BioSpec-nano, Shimadzu). RNAs with an OD260/280 value greater than 1.8 were used for experiment.
(§3) After obtaining cDNA from the total RNA (2 μg) using a HyperScript™ RT master mix kit (GeneAll Biotechnology), real-time PCR was performed using a Rotor-Gene 300 PCR kit (Corbett Research) and a Rotor-Gene™ SYBR Green kit (QIAGEN). Quantitative analysis of the gene expression was performed using the Rotor-Gene 6000 Series System Software program (Corbett Research).
The effect of the treatment of C2C12 cells with the test substances on the mRNA expression of mtDNA, Tfam and CPT-1β associated with mitochondrial replication was investigated.

[2] = system: GSY, SIRT1, PPARγ in C2C12 cells; assay: mRNA expression of genes related with energy in C2C12 cells; type: cell-based, mice; conditions: C2C12, 0.36 μg/mL (Cr 5 μg/mL), control G1 = 1.00
Description: as §1, §2, §3
The result of investigating the effect of the compositions according to Examples 1 to 4 on the mRNA expression of GSY, SIRT1 and PPARγ involved in the energy metabolism of muscle cells is shown in Table 11.

ICR mice = assay: Blood biochemistry (serum analysis) at end of test; type: in vivo
Description: After an acclimatization period of 1 week, healthy animals were selected and divided into 6 groups according to the randomized block design. […] Each test group consisted of 10 animals.
Before sacrificing, the experimental animal was anesthetized using an anesthetic prepared by dilution of tribromoethanol with tertiary amyl alcohol and blood was taken from the eye socket. The blood was placed in a serum-separating tube (Becton Dickinson) and left at room temperature for 30 minutes, centrifuged at 5,000 rpm for 10 minutes to separate the serum, and kept at −70° C. until analysis.
The contents of glucose, triglycerides (TG), total cholesterol (CHOL), LDL-cholesterol (LDL-CHOL), HDL-cholesterol (HDL-CHOL), blood urea nitrogen (BUN) and creatinine (CREA) in the serum, and the activities of creatine kinase (CK), lactate dehydrogenase (LDH), alanine aminotransferase (ALT), aspartate aminotransferase (AST) and alkaline phosphatase (ALP) were measured using a blood biochemistry analyzer (KoneLab 20 XT, Thermo Fisher Scientific).

[3] = system: gastrocnemius muscle (GA); assay: Glycogen content in muscle (gastrocnemius muscle, GA); type: in vivo, ICR mice; conditions: 6 weeks
Description: (§4) After an acclimatization period of 1 week, healthy animals were selected and divided into 6 groups according to the randomized block design. The animals were divided into (G1) a non-exercise control group, (G2) a non-exercise+7 mg/kg body weight (BW) Example 1 group, (G3) a non-exercise+7 mg/kg BW Example 2 group, (G4) a non-exercise+7 mg/kg BW Example 3 group, (G5) a non-exercise+7 mg/kg BW Example 4 group, (G6) an exercise control group, (G7) an exercise+7 mg/kg BW Example 1 group, (G8) an exercise+7 mg/kg BW Example 2 group, (G9) an exercise+7 mg/kg BW Example 3 group, (G10) an exercise+7 mg/kg BW Example 4 group, and (G11) an exercise+75 mg/kg BW Cr dose group. Each test group consisted of 10 animals.
A muscle tissue fluid was prepared to measure glycogen content and enzymatic activity in the muscle tissue. 1 mL of PBS was added to the extracted quadriceps femoris muscle (QF), gastrocnemius muscle (GA), soleus muscle (SOL) and extensor digitorum longus muscle (EDL), and the skeletal muscles were homogenized with a homogenizer. The homogenized solution was centrifuged at 5,000 rpm for 10 minutes and then used as a muscle tissue fluid. The amount of proteins in the muscle tissue was measured using a BCA protein assay kit (Thermo Scientific).
The glycogen content in the liver and skeletal muscle (GA) was measured using a glycogen assay kit according to the method presented by the manufacturer (Abcam).
Accordingly, the glycogen content in the muscle (GA) collected at the end of the test was measured.

[4] = system: PGC1α, AMPK, p38, Nrf2 in gastrocnemius muscle (GA); assay: Western blot of proteins associated with PGC-1α activation in gastrocnemius muscle (GA); type: in vivo, ICR mice
soleus muscle (SOL) = assay: mRNA expression in soleus muscle (SOL), real-time RT-PCR; type: in vivo, ICR mice
Description: as §4
Total RNA was isolated from the muscle tissue (SOL) collected at the end of the test using a TRizol reagent (Thermo Fisher Scientific), and quantified using a micro-volume spectrophotometer (BioSpec-nano, Shimadzu). RNAs with OD260/280 values above 1.8 were used for experiment. After obtaining cDNA from the total RNA (2 μg) using a HyperScript™ RT master mix kit (GeneAll Biotechnology), real-time PCR was performed using a Rotor-Gene 300 PCR kit (Corbett Research) and a Rotor-Gene™ SYBR Green kit (QIAGEN). Quantitative analysis of the gene expression was performed using the Rotor-Gene 6000 Series System Software program (Corbett Research).
Muscle can be classified into slow muscle and fast muscle depending on the physiological rate of contraction. […] Therefore, the effect of endurance exercise training and the administration of the test substances on the expression of antioxidant-related genes (SOD2, GPx1, UCP2, UCP3), LDH-related genes (ERRα, LDH B, MCT1), mitochondrial synthesis-related genes (Tfam, CPT-1β, mtDNA, NRF1) and energy metabolism-related genes (PGC-1α, GYS, PPARγ, PPARδ) in the soleus muscle, which is a slow muscle, was investigated.

[5] = serum, non-exercise, 7 mg/kg BW, 6 weeks
[6] = serum, treadmill exercise, 7 mg/kg BW (Cr 75 mg/kg BW), 6 weeks
[7] = treadmill exercise, 7 mg/kg BW (Cr 75 mg/kg BW)
[8] = GA muscle, non-exercise, 7 mg/kg BW, G1 = 1.00
[9] = SOL muscle, non-exercise, 7 mg/kg BW, G1 = 1.00
[10] = SOL muscle, treadmill exercise, 7 mg/kg BW (Cr 75 mg/kg BW), G1 = 1.00
[11] = GA muscle, treadmill exercise, 7 mg/kg BW (Cr 75 mg/kg BW), G1 = 1.00

CC(C)=CCC[C@](C)(O)C1CC[C@]2(C)C1[C@H](O)CC1[C@@]3(C)C[C@@H](O)C(OC4OC(CO)C(O)C(O)C4OC4OC(CO)C(O)C(O)C4O)C(C)(C)C3CC[C@]12C (stereo partly drawn) [Example 1, Gypenoside L]
mRNA expression CPT1-β [1]: 1.83 ± 0.41 | mRNA expression Tfam [1]: 0.91 ± 0.10 | mRNA expression mtDNA [1]: 1.29 ± 0.41 | mRNA expression GSY [2]: 2.71 ± 0.32 | mRNA expression PPARγ [2]: 1.16 ± 0.47 | mRNA expression Sirt1 [2]: 1.40 ± 0.22 | BUN (ICR mice; 7 mg/kg, 1008 h): 7.10 ± 0.40 mg/dL | CK (ICR mice; 7 mg/kg, 1008 h): 471.7 U/L | LDH (ICR mice; 7 mg/kg, 1008 h): 1,198 U/L | BUN (ICR mice; [5]): 7.54 ± 0.47 mg/dL | CK (ICR mice; [5]): 416.7 U/L | CREA (ICR mice; [5]): 0.312 mg/dL | LDH (ICR mice; [5]): 894 U/L | Lactate (ICR mice; [5]): 5.15 ± 0.30 µmol/L | CREA (ICR mice; [6]): 0.348 mg/dL | Glycogen content in 1 mg of GA ([3]; non-exercise, 7 mg/kg BW): 3.56 ± 0.15 μg/mg GA | Total glycogen content in GA ([3]; non-exercise, 7 mg/kg BW): 1442.1 ± 76.2 μg/GA | Glycogen content in 1 mg of GA [3, 7]: 3.38 ± 0.12^+ μg/mg GA | Total glycogen content in GA [3, 7]: 1404.4 ± 83.3^+ μg/GA | p-AMPK/AMPK ratio ([4]; 7 mg/kg): 1.41 ± 0.14 | p-Nrf2/Nrf2 ratio ([4]; 7 mg/kg): 1.30 ± 0.16 | p-PGC1α/PGC1α ratio ([4]; 7 mg/kg): 1.98 ± 0.34^+ | p-p38/p38 ratio ([4]; 7 mg/kg): 1.86 ± 0.13^+ | p-AMPK/AMPK ratio [4, 8]: 1.22 ± 0.09 | p-Nrf2/Nrf2 ratio [4, 8]: 1.02 ± 0.06 | p-PGC1α/PGC1α ratio [4, 8]: 1.14 ± 0.07 | p-p38/p38 ratio [4, 8]: 1.71 ± 0.16 | mRNA expression CPT-1β (soleus muscle (SOL); 7 mg/kg): 0.86 ± 0.04^++ | mRNA expression ERRα (soleus muscle (SOL); 7 mg/kg): 1.41 ± 0.22 | mRNA expression GPx1 (soleus muscle (SOL); 7 mg/kg): 3.28 ± 0.36^++ | mRNA expression GSY (soleus muscle (SOL); 7 mg/kg): 0.27 ± 0.06 | mRNA expression LDH B (soleus muscle (SOL); 7 mg/kg): 1.26 ± 0.46 | mRNA expression MCT1 (soleus muscle (SOL); 7 mg/kg): 0.56 ± 0.25^+ | mRNA expression NRF1 (soleus muscle (SOL); 7 mg/kg): 29.20 ± 3.10^++ | mRNA expression PGC1α (soleus muscle (SOL); 7 mg/kg): 2.73 ± 0.51 | mRNA expression PPARγ (soleus muscle (SOL); 7 mg/kg): 5.82 ± 1.27^+ | mRNA expression PPARδ (soleus muscle (SOL); 7 mg/kg): 2.42 ± 0.45^+ | mRNA expression SOD2 (soleus muscle (SOL); 7 mg/kg): 1.47 ± 0.13^+ | mRNA expression Tfam (soleus muscle (SOL); 7 mg/kg): 1.98 ± 0.42^+ | mRNA expression UCP2 (soleus muscle (SOL); 7 mg/kg): 6.91 ± 1.47^++ | mRNA expression UCP3 (soleus muscle (SOL); 7 mg/kg): 0.64 ± 0.10 | mRNA expression CPT-1β (soleus muscle (SOL); [9]): 0.34 ± 0.02 | mRNA expression ERRα (soleus muscle (SOL); [9]): 1.67 ± 0.22 | mRNA expression GPx1 (soleus muscle (SOL); [9]): 0.89 ± 0.10 | mRNA expression GSY (soleus muscle (SOL); [9]): 2.60 ± 0.51 | mRNA expression LDH B (soleus muscle (SOL); [9]): 1.76 ± 0.49 | mRNA expression MCT1 (soleus muscle (SOL); [9]): 0.41 ± 0.03 | mRNA expression NRF1 (soleus muscle (SOL); [9]): 15.52 ± 2.59 | mRNA expression PGC1α (soleus muscle (SOL); [9]): 0.88 ± 0.08 | mRNA expression PPARγ (soleus muscle (SOL); [9]): 0.25 ± 0.00 | mRNA expression PPARδ (soleus muscle (SOL); [9]): 2.87 ± 0.95 | mRNA expression SOD2 (soleus muscle (SOL); [9]): 1.16 ± 0.03 | mRNA expression Tfam (soleus muscle (SOL); [9]): 4.74 ± 0.32 | mRNA expression UCP2 (soleus muscle (SOL); [9]): 1.23 ± 0.05 | mRNA expression UCP3 (soleus muscle (SOL); [9]): 0.51 ± 0.09 | mRNA expression mtDNA (soleus muscle (SOL); [9]): 1.29 ± 0.12 | mRNA expression mtDNA (soleus muscle (SOL); [10]): 4.66 ± 0.64^++

CN(CC(=O)O)C(=N)N.O [Cr, Creatine monohydrate, reference compound]
mRNA expression CPT1-β [1]: 0.93 ± 0.20 | mRNA expression Tfam [1]: 0.48 ± 0.07 | mRNA expression PPARγ [2]: 2.93 ± 1.32 | mRNA expression Sirt1 [2]: 1.13 ± 0.18 | BUN (ICR mice; [6]): 7.84 ± 0.47 mg/dL | CK (ICR mice; [6]): 521.5 U/L | CREA (ICR mice; [6]): 0.363 mg/dL | LDH (ICR mice; [6]): 1,169 U/L | Lactate (ICR mice; [6]): 5.30 ± 0.41^++ μmol/L | Glycogen content in 1 mg of GA [3, 7]: 3.32 ± 0.21^+ μg/mg GA | Total glycogen content in GA [3, 7]: 1350.5 ± 73.7^+ μg/GA | p-AMPK/AMPK ratio [4, 11]: 1.43 ± 0.13 | p-Nrf2/Nrf2 ratio [4, 11]: 1.35 ± 0.17 | p-PGC1α/PGC1α ratio [4, 11]: 2.28 ± 0.84^++ | p-p38/p38 ratio [4, 11]: 1.94 ± 0.16^+ | mRNA expression CPT-1β (soleus muscle (SOL); [10]): 0.95 ± 0.28^++ | mRNA expression ERRα (soleus muscle (SOL); [10]): 0.58 ± 0.19^+ | mRNA expression GPx1 (soleus muscle (SOL); [10]): 1.92 ± 0.29^+ | mRNA expression GSY (soleus muscle (SOL); [10]): 0.92 ± 0.31 | mRNA expression LDH B (soleus muscle (SOL); [10]): 0.35 ± 0.11^+ | mRNA expression MCT1 (soleus muscle (SOL); [10]): 0.99 ± 0.31^++ | mRNA expression NRF1 (soleus muscle (SOL); [10]): 9.17 ± 2.18 | mRNA expression PGC1α (soleus muscle (SOL); [10]): 5.09 ± 1.22^+ | mRNA expression PPARγ (soleus muscle (SOL); [10]): 0.29 ± 0.05 | mRNA expression PPARδ (soleus muscle (SOL); [10]): 3.82 ± 0.90^++ | mRNA expression SOD2 (soleus muscle (SOL); [10]): 1.52 ± 0.08^+ | mRNA expression Tfam (soleus muscle (SOL); [10]): 1.34 ± 0.07^ | mRNA expression UCP2 (soleus muscle (SOL); [10]): 14.96 ± 1.96^+++ | mRNA expression UCP3 (soleus muscle (SOL); [10]): 0.87 ± 0.22 | mRNA expression mtDNA (soleus muscle (SOL); [10]): 1.69 ± 0.20^
